Columns and labels:
Assay type in all cases: biochemical
PKC β-II = PKC β-II (Homo sapiens, UniProt P05771); assay: Protein Kinase C Histone-Based Assay, β-II isoform; conditions: histone III substrate, 30 μM ATP, 10 min at 30° C.; read-out: PKC Activity (IC50 μM, Histone Based Assay) Beta II
Procedure: (§1) Compounds were evaluated for PKC selectivity using histone III as the substrate. […] The reaction was incubated for 10 min at 30° C. Reactions were terminated by TCA precipitation and spotting on Whatman P81 filters. Filters were washed in 75 mM phosphoric acid and the radioactivity quantified by liquid scintillation counting.

PKC α = PKC α (Homo sapiens, UniProt P17252); assay: Protein Kinase C Histone-Based Assay, α isoform; conditions: histone III substrate, 30 μM ATP, 10 min at 30° C.; read-out: PKC Activity (IC50 μM, Histone Based Assay) Alpha
Procedure: as §1

[1] = biological target: T1, recombinant rabbit GSK-3β protein (Oryctolagus cuniculus, UniProt G1T8E2); assay: Glycogen Synthase Kinase-3 Assay; conditions: PPI-2 substrate, 33P-ATP, 90 minutes at 30° C.
T1 construct: purchased New England Biolabs
Procedure: Compounds were tested for the ability to inhibit recombinant rabbit GSK-3β protein using the following protocol. The test compound was added to a reaction mixture containing Protein phosphatase inhibitor-2 (PPI-2) (Calbiochem) (45 ng), rabbit GSK-3β protein (New England Biolabs) (0.75 units) and ^33P-ATP (1 μCi) in 50 mM Tris-HCl (pH 8.0), 10 mM MgCl2, 0.1% BSA, 1 mM DTT and 100 μM Sodium Vanadate. The mixture was reacted for 90 minutes at 30° C. to allow phosphorylation of the PPI-2 protein and then the protein in the reaction was precipitated using 10% TCA. The precipitated protein was collected on filter plates (MultiScreen-DV/Millipore), which were subsequently washed. Finally, the radioactivity was quantified using a TopCount Scintillation Counter (Packard).

PKC γ = PKC γ (Homo sapiens, UniProt P05129); assay: Protein Kinase C Histone-Based Assay, γ isoform; conditions: histone III substrate, 30 μM ATP, 10 min at 30° C.; read-out: PKC Activity (IC50 μM, Histone Based Assay) Gamma
Procedure: as §1

PKC β-II, sequence (P05771 1-673 isoform P05771-2): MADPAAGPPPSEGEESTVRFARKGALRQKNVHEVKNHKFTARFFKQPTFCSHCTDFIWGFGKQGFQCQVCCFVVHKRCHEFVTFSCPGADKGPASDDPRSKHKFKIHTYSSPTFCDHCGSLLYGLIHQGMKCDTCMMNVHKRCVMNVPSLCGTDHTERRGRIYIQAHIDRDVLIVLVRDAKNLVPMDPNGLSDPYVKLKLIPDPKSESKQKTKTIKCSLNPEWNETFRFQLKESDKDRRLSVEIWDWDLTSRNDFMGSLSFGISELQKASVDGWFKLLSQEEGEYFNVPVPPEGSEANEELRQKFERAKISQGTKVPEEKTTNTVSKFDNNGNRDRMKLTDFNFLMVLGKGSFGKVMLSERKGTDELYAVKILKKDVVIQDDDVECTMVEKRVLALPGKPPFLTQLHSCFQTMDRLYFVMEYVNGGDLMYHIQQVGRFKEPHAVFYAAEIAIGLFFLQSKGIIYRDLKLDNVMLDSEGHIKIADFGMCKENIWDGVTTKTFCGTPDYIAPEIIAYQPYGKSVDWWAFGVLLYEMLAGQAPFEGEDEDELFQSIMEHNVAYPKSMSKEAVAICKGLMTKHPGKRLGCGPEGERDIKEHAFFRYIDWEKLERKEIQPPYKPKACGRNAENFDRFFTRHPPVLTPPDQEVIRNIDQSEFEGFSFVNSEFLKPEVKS
T1 sequence (G1T8E2 1-432): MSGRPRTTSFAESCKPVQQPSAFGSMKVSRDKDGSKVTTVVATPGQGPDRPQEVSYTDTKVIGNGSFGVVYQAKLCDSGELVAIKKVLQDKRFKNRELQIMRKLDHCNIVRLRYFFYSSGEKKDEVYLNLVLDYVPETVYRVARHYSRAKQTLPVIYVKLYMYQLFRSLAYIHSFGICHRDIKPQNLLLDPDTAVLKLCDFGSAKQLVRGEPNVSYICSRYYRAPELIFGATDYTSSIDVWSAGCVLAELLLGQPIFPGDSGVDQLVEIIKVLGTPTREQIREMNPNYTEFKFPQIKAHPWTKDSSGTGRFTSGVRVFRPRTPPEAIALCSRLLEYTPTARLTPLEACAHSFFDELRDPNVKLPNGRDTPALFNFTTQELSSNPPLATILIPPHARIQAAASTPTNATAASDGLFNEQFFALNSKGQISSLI

| Molecule | IC50 (PKC β-II) [µM] | IC50 (PKC α) [µM] | IC50 [1] [µM] | IC50 (PKC γ) [µM] |
| --- | --- | --- | --- | --- |
| CCn1cc(C2=C(c3nn(CCCN(C)C)c4ccccc34)C(=O)NC2=O)c2cc(Cl)ccc21 [Compound 46, 3-(5-chloro-1-ethyl-1H-indol-3-yl)-4-[1-[3-(dimethylamino)propyl]-1H-indazol-3-yl]-1H-pyrrole-2,5-dione] | 0.005 | 0.308 | 0.01 | 0.123 |
| 3-(1-ethyl-1H-indol-3-yl)-4-[1-[3-(4-morpholinyl)propyl]-1H-indazol-3-yl]-1H-pyrrole-2,5-dione [Compound 69] | 0.014 | 0.25 | 0.018 | 0.55 |
| O=C1NC(=O)C(c2nn(CCCO)c3ccccc23)=C1c1cn(-c2cnc3ccccc3c2)c2ccccc12 [Compound 107, 3-[1-[3-hydroxypropyl]-1H-indazol-3-yl]-4-[1-(3-quinolinyl)-1H-indol-3-yl]-1H-pyrrole-2,5-dione] | 0.009 | 0.098 | 0.82 | 0.018 |
| O=C1NC(=O)C(c2nn(CCCN3CCOCC3)c3ccccc23)=C1c1cn(-c2cccnc2)c2ccccc12 [Compound 68, 3-[1-[3-(4-morpholinyl)propyl]-1H-indazol-3-yl]-4-[1-(3-pyridinyl)-1H-indol-3-yl]-1H-pyrrole-2,5-dione] | 0.011 | 0.217 | 0.096 | 0.426 |
| CNCCCn1nc(C2=C(c3cn(C)c4ccc(Cl)cc34)C(=O)NC2=O)c2ccccc21 [Compound 80, 3-(5-chloro-1-methyl-1H-indol-3-yl)-4-[1-[3-(methylamino)propyl]-1H-indazol-3-yl]-1H-pyrrole-2,5-dione] | 0.018 | 0.328 | 0.051 | 0.512 |
| CN(CCO)CCCn1nc(C2=C(c3cn(-c4cccnc4)c4ccccc34)C(=O)NC2=O)c2ccccc21 [Compound 114, 3-[1-[3-[(2-hydroxyethyl)methylamino]propyl]-1H-indazol-3-yl]-4-[1-(3-pyridinyl)-1H-indol-3-yl]-1H-pyrrole-2,5-dione] | 0.004 | 0.047 | 0.155 | 0.038 |
| CN1CCN(CCCn2nc(C3=C(c4cn(C)c5ccc(Cl)cc45)C(=O)NC3=O)c3ccccc32)CC1 [Compound 77, 3-(5-chloro-1-methyl-1H-indol-3-yl)-4-[1-[3-(4-methyl-1-piperazinyl)propyl]-1H-indazol-3-yl]-1H-pyrrole-2,5-dione] | 0.046 | 0.354 | 0.043 | 0.89 |
| Cn1cc(C2=C(c3nn(CCCN4CCCC4)c4ccccc34)C(=O)NC2=O)c2cc(Cl)ccc21 [Compound 75, 3-(5-chloro-1-methyl-1H-indol-3-yl)-4-[1-[3-(1-pyrrolidinyl)propyl]-1H-indazol-3-yl]-1H-pyrrole-2,5-dione] | 0.01 | 0.204 | 0.033 | 0.175 |
| O=C1NC(=O)C(c2nn(CCCO)c3ccccc23)=C1c1cn(-c2cccnc2)c2ccccc12 [Compound 94, 3-[1-(3-hydroxypropyl)-1H-indazol-3-yl]-4-[1-(3-pyridinyl)-1H-indol-3-yl]-1H-pyrrole-2,5-dione] | 0.011 | 0.306 | 0.058 | 0.411 |
| C=Cn1cc(C2=C(c3nn(CCCN(C)C)c4ccccc34)C(=O)NC2=O)c2cc(Cl)ccc21 [Compound 6, 3-(5-chloro-1-ethenyl-1H-indol-3-yl)-4-[1-[3-(dimethylamino)propyl]-1H-indazol-3-yl]-1H-pyrrole-2,5-dione] | 0.013 | 0.105 | 0.048 | 0.129 |
| C=Cn1cc(C2=C(c3nn(CC(O)CN(C)C)c4ccccc34)C(=O)NC2=O)c2ccccc21 (centres unmarked) [Compound 1, 3-[1-[3-(dimethylamino)-2-hydroxypropyl]-1H-indazol-3-yl]-4-(1-ethenyl-1H-indol-3-yl)-1H-pyrrole-2,5-dione] | 0.014 | 0.052 | 0.09 | 0.058 |

From patent US7329657B2, “Indazolyl-substituted pyrroline compounds as kinase inhibitors” (Ortho-McNeil Pharmaceutical, Inc., priority 2000, dated 2008)
